Measurements as given in US9279769B2, “Proteins that efficiently generate singlet oxygen” (The Regents of the University of California, priority 2010, dated 2016).

Key:
[1] = target: flavodoxin; settings: literature value for a flavodoxin [23]; read-out: dissociation constant; cited from earlier work
[2] = target: T1, Arabidopsis thaliana phototropin 2 (AtPhot2) LOV2 domain (residues 387-492) variant AtminiSOG0.2 (miniSOG0.2, miniSOG), 1387M/N390S/S394T/S409G/C426G/F470L, SEQ ID NO: 2 (Arabidopsis thaliana, UniProt P93025, C426G/F470L/N390S/S394T/S409G); assay: Equilibrium dialysis of miniSOG (FMN dissociation constant); type: binding
T1 construct: can be engineered into a small (106-residue) SOG; made in house
From the text: Mass spectrometry confirmed that the flavin cofactor is FMN. Equilibrium dialysis reported a dissociation constant of 170±8 pM (Table 2), similar to values for some flavoproteins (e.g., 260±60 pM for a flavodoxin [23]) and consistent with the crystal structures of LOV domains, which show FMN deeply buried inside the protein core.

[3] = literature value; cited from earlier work
[4] = test system: HEK293 cells; assay: growth rate of HEK293 cells overexpressing the protein, no light; type: cell-based; settings: for Cell number: HEK293 cells; for toxicity in the absence of light: overexpression in cells, no illumination
From the text: (§1) Feedback pathways involving enzymes such as riboflavin kinase (EC 2.7.1.26) and FAD (flavin adenine dinucleotide) diphosphatase (EC 3.6.1.18) probably regulate intracellular FMN to titrate endogenous flavoproteins and miniSOG [25]. Riboflavin kinase phosphorylates riboflavin into FMN, while FAD diphosphatase catalyzes the production of FMN from FAD.
DNA encoding miniSOG with codons optimized for mammals was synthesized by overlap extension PCR [48]. MiniSOG fusions were cloned into pcDNA3.1 vector. HEK293 and HeLa cells were transfected with miniSOG or chimera cDNAs using Fugene, then imaged 24-48 h later. Cultured cortical neurons were transfected by Amaxa electroporation (Lonza AG, Germany) and imaged 1-2 wk later.

[5] = absorbance spectrum, extinction coefficients; type: physicochemical
Experimental: (§2) To increase the brightness of the C426G mutant, we also performed saturation mutagenesis of other residues surrounding the chromophore binding site. […] The ^1O2 quantum yield of miniSOG0.2 (0.47±0.05) was measured using anthracene-9,10-dipropionic acid (ADPA) as a ^1O2 sensor (FIG. 1E). Free FMN was used as the standard for the measurement of ^1O2 generation (quantum yield 0.51).
(§3) […] was synthesized by overlap extension PCR [48]. Genetic libraries were constructed by saturation and random mutagenesis and DNA shuffling. Mutants were fused to IFP1.4 by overlap extension PCR and cloned into a modified pBAD vector containing the heme oxygenase-1 gene from cyanobacteria. Libraries were expressed in E. coli strain TOP10 and screened by imaging the agar plates with colonies in the IFP channel before and after blue light illumination. Protein purification and spectroscopic characterization experiments were done as described.

[6] = fluorescence quantum yield; type: physicochemical
Experimental: (§4) FIG. 3. (A) Absorbance spectrum of miniSOG0.2 determined between 400 nm and 500 nm (B) Normalized absorbance (left) and emission (right) spectra of miniSOG0.2. The fluorescence quantum yield of miniSOG0.2 was determined to be 0.30. (C) ADPA degradation by miniSOG0.2. ADPA was mixed with miniSOG0.2 in PBS and illuminated at 480/30 nm. ADPA emission spectra taken after indicated illumination times. (D) Degradation of ADPA by illumination of miniSOG0.2 (▴) or free FMN (♦). Flavin mononucleotide (FMN) was used as the standard for the quantum yield measurement. The data represents one typical measurement. The averaged absorbance intensity of FMN and miniSOG0.2 in this measurement is 0.064 and 0.070 respectively in arbitrary units. Singlet-oxygen-generation quantum yield of miniSOG0.2 was determined to be 0.47±0.05 (from three independent measurements).
as §3

[7] = 1O2 quantum yield measured with ADPA as 1O2 sensor, FMN as standard; type: physicochemical; settings: for 1O2 (singlet oxygen generation) quantum yield: ADPA sensor in PBS, illuminated at 480/30 nm, FMN standard
Experimental: as §4, §2

[8] = test system: HEK293 cells; assay: FMN content of HEK293 cells after overexpression; type: cell-based; settings: overexpression in HEK293 cells
From the text: as §1

Cc1cc2nc3c(=O)[nH]c(=O)nc-3n(C[C@H](O)[C@H](O)[C@H](O)COP(=O)(O)O)c2cc1C [FMN, flavin mononucleotide]
Kd [1]: 0.26 ± 0.06 nM
Kd ([2]; [apo] * [FMN]/[holo], equilibrium dialysis, dialysis time 24 hrs): 0.124 ± 0.0057 nM
Kd ([2]; [apo] * [FMN]/[holo], equilibrium dialysis, dialysis time 48 hrs): 0.174 ± 0.0053 nM
Kd ([2]; [apo] * [FMN]/[holo], equilibrium dialysis, dialysis time 72 hrs): 0.17 ± 0.0084 nM
Kd ([2]; dissociation constant (binds endogenous FMN very tightly), summary statement): ~0.1 nM
Kd ([2]; dissociation constant, equilibrium dialysis, FMN cofactor): 0.17 ± 0.008 nM

O=c1ccc2nc3ccc(O)c([As]4SCCS4)c3oc-2c1[As]1SCCS1 [ReAsH]
1O2 quantum yield [3]: 0.024

CC1=NC(=Cc2ccc(O)cc2)C(=O)N1C [naked GFP chromophore]
1O2 quantum yield [3]: 0.004

Cc1cc2nc3c(=O)[nH]c(=O)nc-3n(C[C@H](O)[C@H](O)[C@H](O)COP(=O)(O)O)c2cc1C [Free FMN, flavin mononucleotide]
1O2 quantum yield [3]: 0.51

AtminiSOG0.2: 106-residue mutant of Arabidopsis thaliana phototropin 2 residues 387-492, 1387M/N390S/S394T/S409G/C426G/F470L, SEQ ID NO:2, binds FMN
Cell number ([4]; Day 0, transfection efficiency >90%): 200 10^3
Cell number ([4]; Day 1, transfection efficiency >90%): 390 10^3
Cell number ([4]; Day 2, transfection efficiency >90%): 940 10^3
toxicity in the absence of light [4]: no obvious toxicity
toxicity in the absence of light ([4]; listed as AtminiSOG): without any obvious toxicity
extinction coefficient ([5]; at 448 nm): (16.7±0.7)×10^3 M^−1cm^−1
extinction coefficient ([5]; at 448 nm, listed as AtminiSOG): 16,700 M^−1cm^−1
extinction coefficient ([5]; at 473 nm): (13.6±0.5)×10^3 M^−1cm^−1
extinction coefficient ([5]; at 473 nm, listed as AtminiSOG): 13,600 M^−1cm^−1
fluorescence quantum yield ([6]; listed as AtminiSOG): 0.30
fluorescence quantum yield ([6]; listed as miniSOG): 0.37
fluorescence quantum yield ([6]; listed as miniSOG0.2): 0.30
1O2 quantum efficiency relative to ReAsH on a tetracysteine motif [7]: about 20 times
1O2 (singlet oxygen generation) quantum yield ([7]; listed as AtminiSOG): 0.47
1O2 (singlet oxygen generation) quantum yield ([7]; listed as miniSOG0.2): 0.47±0.05
increase of FMN content [8]: ~3 fold
